Laboratory results: PubChem BioAssay AID588711 (The Scripps Research Institute Molecular Screening Center, 2011)
“And” between values parts separate entries of the source, which are not always exact repeats. Equal entries are not always repeated. The source made the active and inactive calls. How the calls were made is not given here.

These molecules were tested against Insulin-degrading enzyme (Homo sapiens) (UniProt P14735) (assay: inhibitors of recombinant IDE enzyme, late-stage follow-up, counter-screen for IDE inhibitor project, biochemical, fluorescence polarization (AID 588711)).
Insulin-degrading enzyme (Homo sapiens), sequence (P14735 whole entry, looked up): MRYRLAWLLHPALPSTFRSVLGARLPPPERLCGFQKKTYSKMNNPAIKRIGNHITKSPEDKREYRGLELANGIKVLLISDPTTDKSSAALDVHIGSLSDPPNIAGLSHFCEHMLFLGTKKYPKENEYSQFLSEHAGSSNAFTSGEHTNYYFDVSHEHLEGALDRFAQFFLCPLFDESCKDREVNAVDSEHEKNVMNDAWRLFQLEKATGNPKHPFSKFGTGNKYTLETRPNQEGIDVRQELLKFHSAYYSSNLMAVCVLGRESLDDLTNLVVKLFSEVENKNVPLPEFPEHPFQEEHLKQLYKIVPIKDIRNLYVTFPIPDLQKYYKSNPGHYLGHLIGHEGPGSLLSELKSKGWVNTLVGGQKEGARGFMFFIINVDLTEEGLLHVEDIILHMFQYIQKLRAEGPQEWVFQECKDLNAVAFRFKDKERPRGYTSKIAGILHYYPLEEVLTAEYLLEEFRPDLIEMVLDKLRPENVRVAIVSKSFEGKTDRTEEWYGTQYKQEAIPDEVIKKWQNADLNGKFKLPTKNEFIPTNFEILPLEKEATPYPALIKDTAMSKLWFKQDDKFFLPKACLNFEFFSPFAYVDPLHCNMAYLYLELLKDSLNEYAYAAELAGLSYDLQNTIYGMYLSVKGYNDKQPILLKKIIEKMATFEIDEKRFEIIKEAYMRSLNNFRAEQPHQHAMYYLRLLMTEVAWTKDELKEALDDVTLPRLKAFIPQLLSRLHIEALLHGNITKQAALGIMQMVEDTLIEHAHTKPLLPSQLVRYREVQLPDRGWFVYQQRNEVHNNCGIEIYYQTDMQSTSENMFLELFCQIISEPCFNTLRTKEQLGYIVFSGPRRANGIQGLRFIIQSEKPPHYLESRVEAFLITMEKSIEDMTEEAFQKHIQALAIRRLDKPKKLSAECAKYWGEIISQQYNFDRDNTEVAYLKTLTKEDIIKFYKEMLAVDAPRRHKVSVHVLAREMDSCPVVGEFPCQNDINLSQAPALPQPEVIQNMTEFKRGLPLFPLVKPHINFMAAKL

SMILES	IC50
O=C(Nc1cccc(C(F)(F)F)c1)c1csc(-c2cccc(C(F)(F)F)c2)n1	> 54.7 µM (inactive)
COc1ccc(NC(=O)CSc2nnc(CN3CCOCC3)n2C)cc1Cl	> 54.7 µM (inactive)
CCOc1ccc2[nH]c3c(N4CCN(C(=O)c5ccco5)CC4)ncnc3c2c1	8.54 µM
Cn1c(=O)c(C(=O)CN2CCCc3ccccc32)c(N)n(Cc2ccccc2)c1=O	> 54.7 µM (inactive)
O=C(CSc1nnc(-c2cccc(Cl)c2)n1Cc1ccco1)Nc1ccc2cn[nH]c2c1	> 54.7 µM (inactive)
COc1cc(/C=C2\SC(=S)N(NC(C)=O)C2=O)ccc1OC(=O)c1ccco1	inactive
Cc1ccc(-c2nc(C(=O)Nc3cccc(C(F)(F)F)c3)cs2)cc1	> 54.7 µM (inactive)
Cc1c(CCC(=O)NCCCn2ccnc2)c(=O)oc2cc3oc4c(c3cc12)CCCC4	6.14 µM
O=C(CSc1nnc(-c2cccc(Cl)c2)n1Cc1ccco1)c1ccc2ccccc2c1	> 54.7 µM (inactive)
Clc1cccc(-c2nnc(SCc3nc4ccccc4[nH]3)n2-c2ccccc2)c1	> 54.7 µM (inactive)
Clc1cccc(-c2nnc(SCc3nc4ccccc4[nH]3)n2Cc2ccco2)c1	2.34 µM
Nc1c(C(=O)Nc2nccs2)sc2nc(-c3cccs3)cc(C(F)(F)F)c12	> 18.2 µM (inactive)
COc1ccc(-c2nc(C(=O)Nc3cccc(C(F)(F)F)c3)cs2)cc1	> 54.7 µM (inactive)
O=C(Nc1cc(C(F)(F)F)cc(C(F)(F)F)c1)c1csc(-c2ccncc2)n1	> 54.7 µM (inactive)
COc1cccc(-c2nnc(SCc3nc4ccccc4[nH]3)n2Cc2ccco2)c1	5.9 µM

More lines, now with the values ahead:

IC50	SMILES
> 54.7 µM (inactive)	O=C(CSc1nnc(-c2cccc(Cl)c2)n1Cc1ccco1)Nc1ccc2c(c1)OCCO2
2.8 µM	O=C(Nc1cccc(C(F)(F)F)c1)c1csc(-c2ccncc2)n1
> 54.7 µM (inactive)	O=C(CSc1nnc(-c2cccc(Cl)c2)n1Cc1ccco1)Nc1ccccc1C(F)(F)F
inactive	O=C(C1CC1)N1CCN(c2ccnc3cc(Cl)ccc23)CC1
> 54.7 µM (inactive)	CC(Sc1nnc(-c2cccnc2)n1-c1ccccc1F)C(=O)N1CCCc2ccccc21 (stereo not given)
inactive	COc1ccc(C(=O)N2CCN(C(=O)C3COc4ccccc4O3)CC2)cc1OC (stereo not given)
7.21 µM and 6.15 µM	Cc1cccc(-c2nnc(SCc3nc4ccccc4[nH]3)n2Cc2ccco2)c1
> 54.7 µM (inactive)	O=C(Nc1cccc(C(F)(F)F)c1)c1csc(-c2ccccc2)n1
> 54.7 µM (inactive)	Cc1ccc(C)c(N2C(=N)S/C(=C\c3ccc(-c4ccccc4C(=O)O)o3)C2=O)c1
> 54.7 µM (inactive)	Cc1nc(-c2cccnc2)sc1C(=O)Nc1cccc(C(F)(F)F)c1
> 54.7 µM (inactive)	Cc1ccc(NC(=O)CSc2nnc(-c3cccc(Cl)c3)n2Cc2ccco2)c(C)c1
1.71 µM	O=c1c2ccccc2sn1-c1cc(S(=O)(=O)N2CCOCC2)ccc1N1CCOCC1
> 54.7 µM (inactive)	O=C(Nc1cccc(C(F)(F)F)c1)c1csc(Cc2cccc(C(F)(F)F)c2)n1
> 54.7 µM (inactive)	Cn1c(SCc2nc3ccccc3[nH]2)nnc1-c1cccc(Cl)c1
> 54.7 µM (inactive)	O=C(Nc1ccc2oc(-c3cccnc3)nc2c1)c1ccc2c(c1)OCCO2
